According to paper PMC11013662, “New Thiosemicarbazide Derivatives with Multidirectional Biological Action” (Molecules, 2024):
≈ marks a conversion by molar mass, not a printed value.

Legend:
[1] = system: S. aureus reference strains; experiment: Broth microdilution MIC / MBC, summary over S. aureus strains; format: cell-based, Staphylococcus aureus
Procedure: (§1) The microdilution method was used to determine the MIC values of newly synthesized compounds. The antimicrobial activity of the thiosemicarbazides series was tested on ten reference bacterial strains purchased from the American Type Culture Collection (ATCC). Seven Gram-positive reference strains (S. aureus ATCC 29213, S. aureus ATCC 43300, S. aureus ATCC 6538, S. aureus ATCC 25923, S. epidermidis ATCC 12228, M. luteus ATCC 10240, and B. cereus ATCC 10876) and three Gram-negative reference bacteria (K. pneumoniae ATCC 13883, E. coli ATCC 25922, S. typhimurium ATCC 14028) were used. […]
(§2) A 96-well microtiter plate and microbroth two-fold dilution method was used to determine the minimum inhibitory concentration (MIC) according to the EUCAST (European Committee on Antimicrobial Susceptibility Testing) reference recommendation. […] After incubation, the growth of bacteria was monitored by a Biotek ELx800 (Biokom, Janki, Poland) spectrophotometer at 600 nm (OD600). […]
(§3) The in vitro antimicrobial activity of the tested compounds was determined by the MIC, which was defined as the lowest concentration of the compound tested at which no visible growth of the test bacteria was observed. […] MBC was determined after the broth dilution period of an MIC test has been completed. […] The MBC values were determined by observing the first clear area on the agar plate that has no observable bacterial growth.

[2] = system: Staphylococcus spp. strains; experiment: Broth microdilution MIC / MBC, staphylococci; format: cell-based
Procedure: as §1, §2, §3

Gram-positive bacteria = experiment: Broth microdilution MIC / MBC, summary over Gram-positive strains; format: cell-based
Procedure: as §1, §2, §3

SMILES	MBC ([1]; Staphylococcus aureus, all tested S. aureus reference strains) [µg/mL]	MBC/MIC ratio ([2]; against staphylococci, bacteriostatic)	MIC ([2]; all Staphylococcus spp. strains except MRSA ATCC 43300) [µg/mL]	MIC range ([1]; S. aureus ATCC 43300 MRSA and all MSSA reference strains) [µg/mL]	MBC (Gram-positive bacteria) [µg/mL]	MIC range (Gram-positive bacteria) [µg/mL]
O=C(NNC(=S)Nc1cccc(Cl)c1)c1cccc(C(F)(F)F)c1 [Compound 3a, 4-(3-Chlorophenyl)-1-(3-trifluoromethylbenzoyl)thiosemicarbazide]	1000 (≈ 2680 µM)	> 4	1.95 (≈ 5.22 µM)			
O=C(NNC(=S)Nc1cccc(F)c1)c1cccc(C(F)(F)F)c1 [Compound 3e, 1-(3-Trifluoromethylbenzoyl)-4-(3-fluorophenyl)thiosemicarbazide]				15.63 to 31.25	> 1000	7.8 to 31.25
